For four compounds, inhibition, IC50 and Activity results are on record in ChEMBL document CHEMBL1821549, “Phylogeny-guided isolation of ethyl tumonoate A from the marine cyanobacterium cf. Oscillatoria margaritifera” (J Nat Prod, 2011).

One data set is filed under the species Mus musculus. Nature of the data set: Inhibition of calcium (Ca2+) oscillations in Swiss-Webster mouse neocortical neurons at 10 uM by Fluo-3 dye based fluorimetric assay. The class given is functional.
Data set [1] has as its system RAW264.7. Nature of the data set: Antiinflammatory activity in mouse RAW264.7 cells assessed as inhibition of LPS-induced nitric oxide production incubated for 24 hrs by Griess method. The class given is functional, cell-based. The settings on record: RAW264.7, 24 h. A general note: The Griess reaction detects nitrite, a stable product of nitric oxide.
Data set [2] deals with RAW264.7. Nature of the data set: Cytotoxicity against mouse RAW264.7 cells after 48 hrs by MTT assay. The class given is cell-based. The settings on record: raw264.7, 48 h. A general note: Formazan colour is commonly taken as a measure of viable cells.
Another data set deals with NCI-H460. Nature of the data set: Cytotoxicity against human H460 cells at =>10 ug/mL. The class given is cell-based.

Molecules are shown by their SMILES. Active and inactive are the calls of the source. The calls are words filed in the database; no cut-off is given here.

For orientation: IC50 means the concentration needed to halve the response being measured.

Take `CCCCCCCC[C@H](C)C(=O)N1CCC[C@H]1C(=O)O[C@@H](C(=O)O[C@@H](C)C(=O)O)[C@@H](C)CC`: in the data set filed under Mus musculus, the inhibition entry is “inactive”.

Take `CCCCCCCCC(C)[C@H](OC(C)=O)[C@H](C)C(=O)N1CCC[C@H]1C(=O)O` (some centres not stated): the inhibition result in the data set filed under Mus musculus was “Active”.

Consider `CCCCCCC/C=C(\C)[C@@H](O)[C@@H](C)C(=O)N1CCC[C@H]1C(=O)OCC` [ETHYL TUMONOATE A], for which the IC50 in the data set on RAW264.7 [1] amounted to 9.8 µM. Besides, the Activity result with RAW264.7 [2] and in the data set on NCI-H460 was “Non-toxic” each time. Also, the inhibition entry in the data set listed under Mus musculus is “Active”.

For the compound `CCCCCCC/C=C(\C)[C@@H](O)[C@@H](C)C(=O)N1CCC[C@H]1C(=O)O`, in the data set filed under Mus musculus, the inhibition result is “Active”.
